Data reported in patent US20230143604A1, “QW DOSING OF GIP RECEPTOR AGONIST PEPTIDE COMPOUNDS AND USES THEREOF” (TAKEDA PHARMACEUTICAL COMPANY LIMITED, priority 2020, published 2023).
Starred links: 1 amine or outer side, 2 acyl side, 3 side chain; linkers in the order of their positions; H or OH if unused. Non-standard residues stand in square brackets, D forms with d. Residues, ends and D or L forms follow the SMILES beside them. Groups on a side chain read outwards from the residue. *: point of attachment. C18 diacid = O=C(O)CCCCCCCCCCCCCCCCC(=O)*; C17 diacid = O=C(O)CCCCCCCCCCCCCCCC(=O)*; γGlu = O=C(O)[C@H](CCC(=O)[*:2])N[*:1]; NMeY = CN[C@@H](Cc1ccc(O)cc1)C(=O)O; AEEA = NCCOCCOCC(=O)O; Aib = CC(C)(N)C(=O)O

Assay: physchem
Conditions: pH 7.4, aqueous buffer
Summary of the method: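 3 mg of peptide treated with 100 μL portions of 200 mM phosphate buffer pH 7.4, sonicating/vortexing up to 1 min, with further buffer added until fully dissolved. Solubility then quantified by HPLC.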

Structure (SMILES)	solubility
CC[C@H](C)[C@H](NC(=O)[C@H](CO)NC(=O)[C@H](Cc1ccc(O)cc1)NC(=O)[C@H](CC(=O)O)NC(=O)[C@H](CO)NC(=O)[C@@H](NC(=O)[C@H](Cc1ccccc1)NC(=O)[C@@H](NC(=O)CNC(=O)[C@H](CCC(=O)O)NC(=O)C(C)(C)NC(=O)[C@@H](N)Cc1ccc(O)cc1)[C@@H](C)O)[C@@H](C)CC)C(=O)N[C@@H](C)C(=O)N[C@@H](CC(C)C)C(=O)N[C@@H](CC(=O)O)C(=O)N[C@@H](CCCNC(=N)N)C(=O)N[C@H](C(=O)N[C@@H](Cc1c[nH]cn1)C(=O)N[C@@H](CCC(N)=O)C(=O)N[C@@H](CCC(N)=O)C(=O)N[C@@H](CC(N)=O)C(=O)N[C@@H](Cc1ccccc1)C(=O)N[C@H](C(=O)N[C@@H](CC(N)=O)C(=O)N[C@@H](Cc1c[nH]c2ccccc12)C(=O)N[C@@H](CC(C)C)C(=O)N[C@@H](CC(C)C)C(=O)N[C@@H](C)C(=O)N[C@@H](CCC(N)=O)C(=O)N[C@@H](CCCCNC(=O)COCCOCCNC(=O)COCCOCCNC(=O)CC[C@H](NC(=O)CCCCCCCCCCCCCCCCC(=O)O)C(=O)O)C(=O)O)C(C)C)[C@@H](C)CC [Compound 249] (H-Y[Aib]EGTFISDYSIALDRIHQQNFVNWLLAQK([AEEA-AEEA-γGlu-C18 diacid])-OH; N-terminus and C-terminus assumed)	≥ 6800 µg/mL
CC[C@H](C)[C@H](NC(=O)[C@H](CO)NC(=O)[C@H](Cc1ccc(O)cc1)NC(=O)[C@H](CC(=O)O)NC(=O)[C@H](CO)NC(=O)[C@@H](NC(=O)[C@H](Cc1ccccc1)NC(=O)[C@@H](NC(=O)CNC(=O)[C@H](CCC(=O)O)NC(=O)C(C)(C)NC(=O)[C@H](Cc1ccc(O)cc1)NC)[C@@H](C)O)[C@@H](C)CC)C(=O)N[C@@H](C)C(=O)N[C@@H](CCCCNC(=O)CNC(=O)CNC(=O)CNC(=O)CNC(=O)CNC(=O)CCCCCCCCCCCCCCCCC(=O)O)C(=O)N[C@@H](CC(=O)O)C(=O)N[C@@H](CCCNC(=N)N)C(=O)NC(C)(C)C(=O)N[C@@H](C)C(=O)N[C@@H](CCC(N)=O)C(=O)NC(C)(C)C(=O)N[C@@H](CC(N)=O)C(=O)N[C@@H](Cc1ccccc1)C(=O)N[C@H](C(=O)N[C@@H](CC(N)=O)C(=O)N[C@@H](Cc1c[nH]c2ccccc12)C(=O)N[C@@H](CC(C)C)C(=O)N[C@@H](CC(C)C)C(=O)N[C@@H](C)C(=O)N[C@@H](CCC(N)=O)C(=O)N[C@@H](CCCNC(=N)N)C(N)=O)C(C)C [Compound 250]	≥ 700 µg/mL
CC[C@H](C)[C@H](NC(=O)[C@H](CO)NC(=O)[C@H](Cc1ccc(O)cc1)NC(=O)[C@H](CC(=O)O)NC(=O)[C@H](CO)NC(=O)[C@@H](NC(=O)[C@H](Cc1ccccc1)NC(=O)[C@@H](NC(=O)CNC(=O)[C@H](CCC(=O)O)NC(=O)C(C)(C)NC(=O)[C@H](Cc1ccc(O)cc1)NC)[C@@H](C)O)[C@@H](C)CC)C(=O)N[C@@H](C)C(=O)N[C@@H](CCCCNC(=O)CNC(=O)CNC(=O)CNC(=O)CNC(=O)CNC(=O)CCCCCCCCCCCCCCCCC(=O)O)C(=O)N[C@@H](CC(=O)O)C(=O)N[C@@H](CCCNC(=N)N)C(=O)NC(C)(C)C(=O)N[C@@H](C)C(=O)N[C@@H](CCC(N)=O)C(=O)NC(C)(C)C(=O)N[C@@H](CC(N)=O)C(=O)N[C@@H](Cc1ccccc1)C(=O)N[C@H](C(=O)N[C@@H](CC(N)=O)C(=O)N[C@@H](Cc1c[nH]c2ccccc12)C(=O)N[C@@H](CC(C)C)C(=O)N[C@@H](CC(C)C)C(=O)N[C@@H](C)C(=O)N[C@@H](CCC(N)=O)C(=O)N[C@@H](CCCNC(=N)N)C(=O)O)C(C)C [Compound 251]	≥ 7000 µg/mL
CC[C@H](C)[C@H](NC(=O)[C@H](CCCNC(=N)N)NC(=O)[C@H](CC(=O)O)NC(=O)[C@H](CCCCNC(=O)COCCOCCNC(=O)COCCOCCNC(=O)CC[C@H](NC(=O)CCCCCCCCCCCCCCCCC(=O)O)C(=O)O)NC(=O)[C@H](C)NC(=O)[C@@H](NC(=O)[C@H](CO)NC(=O)[C@H](Cc1ccc(O)cc1)NC(=O)[C@H](CC(=O)O)NC(=O)[C@H](CO)NC(=O)[C@@H](NC(=O)[C@H](Cc1ccccc1)NC(=O)[C@@H](NC(=O)CNC(=O)[C@H](CCC(=O)O)NC(=O)C(C)(C)NC(=O)[C@H](Cc1ccc(O)cc1)NC)[C@@H](C)O)[C@@H](C)CC)[C@@H](C)CC)C(=O)N[C@@H](C)C(=O)N[C@@H](CCC(N)=O)C(=O)NC(C)(C)C(=O)N[C@@H](CC(N)=O)C(=O)N[C@@H](Cc1ccccc1)C(=O)N[C@H](C(=O)N[C@@H](CC(N)=O)C(=O)N[C@@H](Cc1c[nH]c2ccccc12)C(=O)N[C@@H](CC(C)C)C(=O)N[C@@H](CC(C)C)C(=O)N[C@@H](C)C(=O)N[C@@H](CCC(N)=O)C(=O)N[C@@H](CCCNC(=N)N)C(N)=O)C(C)C [Compound 252] (H-[NMeY][Aib]EGTFISDYSIAK([AEEA-AEEA-γGlu-C18 diacid])DRIAQ[Aib]NFVNWLLAQR-NH2)	≥ 7300 µg/mL
CC[C@H](C)[C@H](NC(=O)[C@H](CO)NC(=O)[C@H](Cc1ccc(O)cc1)NC(=O)[C@H](CC(=O)O)NC(=O)[C@H](CO)NC(=O)[C@@H](NC(=O)[C@H](Cc1ccccc1)NC(=O)[C@@H](NC(=O)CNC(=O)[C@H](CCC(=O)O)NC(=O)C(C)(C)NC(=O)[C@H](Cc1ccc(O)cc1)NC)[C@@H](C)O)[C@@H](C)CC)C(=O)N[C@@H](C)C(=O)N[C@@H](CCCCNC(=O)COCCOCCNC(=O)COCCOCCNC(=O)CC[C@H](NC(=O)CCCCCCCCCCCCCCCCC(=O)O)C(=O)O)C(=O)N[C@@H](CC(=O)O)C(=O)N[C@@H](CCCNC(=N)N)C(=O)NC(C)(C)C(=O)N[C@@H](C)C(=O)N[C@@H](CCC(N)=O)C(=O)N[C@@H](CCC(N)=O)C(=O)N[C@@H](CC(N)=O)C(=O)N[C@@H](Cc1ccccc1)C(=O)N[C@H](C(=O)N[C@@H](CC(N)=O)C(=O)N[C@@H](Cc1c[nH]c2ccccc12)C(=O)N[C@@H](CC(C)C)C(=O)N[C@@H](CC(C)C)C(=O)N[C@@H](C)C(=O)N[C@@H](CCC(N)=O)C(=O)N[C@@H](CCCNC(=N)N)C(N)=O)C(C)C [Compound 253] (H-[NMeY][Aib]EGTFISDYSIAK([AEEA-AEEA-γGlu-C18 diacid])DR[Aib]AQQNFVNWLLAQR-NH2)	≥ 7400 µg/mL
CC[C@H](C)[C@H](NC(=O)[C@H](CO)NC(=O)[C@H](Cc1ccc(O)cc1)NC(=O)[C@H](CC(=O)O)NC(=O)[C@H](CO)NC(=O)[C@@H](NC(=O)[C@H](Cc1ccccc1)NC(=O)[C@@H](NC(=O)CNC(=O)[C@H](CCC(=O)O)NC(=O)C(C)(C)NC(=O)[C@H](Cc1ccc(O)cc1)NC)[C@@H](C)O)[C@@H](C)CC)C(=O)N[C@@H](C)C(=O)N[C@@H](CCCCNC(=O)COCCOCCNC(=O)COCCOCCNC(=O)CC[C@H](NC(=O)CCCCCCCCCCCCCCCCC(=O)O)C(=O)O)C(=O)N[C@@H](CC(=O)O)C(=O)N[C@@H](CCCNC(=N)N)C(=O)NC(C)(C)C(=O)N[C@@H](C)C(=O)N[C@@H](CCC(N)=O)C(=O)NC(C)(C)C(=O)N[C@@H](CC(N)=O)C(=O)N[C@@H](Cc1ccccc1)C(=O)N[C@H](C(=O)N[C@@H](CC(N)=O)C(=O)N[C@@H](Cc1c[nH]c2ccccc12)C(=O)N[C@@H](CC(C)C)C(=O)N[C@@H](CC(C)C)C(=O)N[C@@H](C)C(=O)N[C@@H](CCC(N)=O)C(=O)N[C@@H](CCCNC(=N)N)C(N)=O)C(C)C [Compound 254] (H-[NMeY][Aib]EGTFISDYSIAK([AEEA-AEEA-γGlu-C18 diacid])DR[Aib]AQ[Aib]NFVNWLLAQR-NH2)	≥ 7200 µg/mL
CC[C@H](C)[C@H](NC(=O)[C@H](CO)NC(=O)[C@H](Cc1ccc(O)cc1)NC(=O)[C@H](CC(=O)O)NC(=O)[C@H](CO)NC(=O)[C@@H](NC(=O)[C@H](Cc1ccccc1)NC(=O)[C@@H](NC(=O)CNC(=O)[C@H](CCC(=O)O)NC(=O)C(C)(C)NC(=O)[C@H](Cc1ccc(O)cc1)NC)[C@@H](C)O)[C@@H](C)CC)C(=O)N[C@@H](C)C(=O)N[C@@H](CCCCNC(=O)COCCOCCNC(=O)COCCOCCNC(=O)CC[C@H](NC(=O)CCCCCCCCCCCCCCCC(=O)O)C(=O)O)C(=O)N[C@@H](CC(=O)O)C(=O)N[C@@H](CCCNC(=N)N)C(=O)NC(C)(C)C(=O)N[C@@H](C)C(=O)N[C@@H](CCC(N)=O)C(=O)NC(C)(C)C(=O)N[C@@H](CC(N)=O)C(=O)N[C@@H](Cc1ccccc1)C(=O)N[C@H](C(=O)N[C@@H](CC(N)=O)C(=O)N[C@@H](Cc1c[nH]c2ccccc12)C(=O)N[C@@H](CC(C)C)C(=O)N[C@@H](CC(C)C)C(=O)N[C@@H](C)C(=O)N[C@@H](CCC(N)=O)C(=O)N[C@@H](CCCCN)C(=O)O)C(C)C [Compound 255] (H-[NMeY][Aib]EGTFISDYSIAK([AEEA-AEEA-γGlu-C17 diacid])DR[Aib]AQ[Aib]NFVNWLLAQK-OH; C-terminus assumed)	≥ 10000 µg/mL
CC[C@H](C)[C@H](NC(=O)[C@H](CO)NC(=O)[C@H](Cc1ccc(O)cc1)NC(=O)[C@H](CC(=O)O)NC(=O)[C@H](CO)NC(=O)[C@@H](NC(=O)[C@H](Cc1ccccc1)NC(=O)[C@@H](NC(=O)CNC(=O)[C@H](CCC(=O)O)NC(=O)C(C)(C)NC(=O)[C@H](Cc1ccc(O)cc1)NC)[C@@H](C)O)[C@@H](C)CC)C(=O)N[C@@H](C)C(=O)N[C@@H](CC(C)C)C(=O)N[C@@H](CC(=O)O)C(=O)N[C@@H](CCCNC(=N)N)C(=O)NC(C)(C)C(=O)N[C@@H](CCCCNC(=O)COCCOCCNC(=O)COCCOCCNC(=O)CC[C@H](NC(=O)CC[C@H](NC(=O)CCCCCCCCCCCCCCCC(=O)O)C(=O)O)C(=O)O)C(=O)N[C@@H](CCC(N)=O)C(=O)NC(C)(C)C(=O)N[C@@H](CC(N)=O)C(=O)N[C@@H](Cc1ccccc1)C(=O)N[C@H](C(=O)N[C@@H](CC(N)=O)C(=O)N[C@@H](Cc1c[nH]c2ccccc12)C(=O)N[C@@H](CC(C)C)C(=O)N[C@@H](CC(C)C)C(=O)N[C@@H](C)C(=O)N[C@@H](CCC(N)=O)C(=O)N[C@@H](CCCNC(=N)N)C(N)=O)C(C)C [Compound 256] (H-[NMeY][Aib]EGTFISDYSIALDR[Aib]K([AEEA-AEEA-γGlu-γGlu-C17 diacid])Q[Aib]NFVNWLLAQR-NH2)	≥ 6000 µg/mL
